Source: US4933347A, “Diamidines and bis(imidazolines) for the treatment of and prophylaxis against pneumocystis carinii pneumonia” (University of North Carolina at Chapel Hill, priority 1988, dated 1990)

Columns and labels:
[1] = Toxicity of amidines in rats (standard laboratory procedure); assay type: in vivo; conditions: for Toxicity of amidines: Effect: dose as in value, else not given in Table XIII (10 mg/kg test dose)
Method: Compounds having the structure represented by Formula I were synthesized in accordance with the appropriate procedures discussed previously. The reaction schemes shown in Charts I-III specifically identify the methodology used to synthesize the compounds of the respective examples. The compounds which were synthesized are shown in Table IA and the elemental analysis and melting points of the compounds are shown in Table IB. Most of the compounds were tested for toxicity in rats using standard laboratory procedure and the results of that toxicity testing are shown in Table XII. The compounds of Examples 31, 32, and 34 were not synthesized but may be synthesized in the general manner discussed previously.

Pneumocystis carinii = assay: Treatment of Pneumocystis carinii pneumonia in Sprague-Dawley rats (extent of disease by histologic score); assay type: in vivo, male Sprague-Dawley rats; conditions: for Extent of Disease by Histologic Score: number of animals with score 0.5 / Extent of Disease by Histologic Score: number of animals with score 1 / Extent of Disease by Histologic Score: number of animals with score 2 / Extent of Disease by Histologic Score: number of animals with score 3 / Extent of Disease by Histologic Score: number of animals with score 4: 14 days; for Extent of Disease by Histologic Score: number of animals with score 0.5 / Extent of disease by histologic score (combined): number of animals in scoring group 0.5: 0.5 = <10 cysts found per 2 sections; for Extent of Disease by Histologic Score: number of animals with score 1 / Extent of disease by histologic score (combined): number of animals in scoring group 1: 1 = scattered cysts, <5% of lung involved; for Extent of Disease by Histologic Score: number of animals with score 2 / Extent of disease by histologic score (combined): number of animals in scoring group 2: 2 = scattered cysts; for Extent of Disease by Histologic Score: number of animals with score 2: 5-10% lung involved or small foci of infection; for Extent of Disease by Histologic Score: number of animals with score 3 / Extent of disease by histologic score (combined): number of animals in scoring group 3: 3 = scattered cysts; for Extent of Disease by Histologic Score: number of animals with score 3: 10-50% of lung involved with some intense areas of infection; for Extent of Disease by Histologic Score: number of animals with score 4: 4 = >50% of lung involved with many intense areas of focal infection; for Extent of disease by histologic score (combined): number of animals in scoring group 0.5 / Extent of disease by histologic score (combined): number of animals in scoring group 1 / Extent of disease by histologic score (combined): number of animals in scoring group 2 / Extent of disease by histologic score (combined): number of animals in scoring group 3 / Extent of disease by histologic score (combined): number of animals in scoring group 4: Table XII composite; for Extent of disease by histologic score (combined): number of animals in scoring group 2: 5-10% of lung involved; for Extent of disease by histologic score (combined): number of animals in scoring group 3: 10-50% of lung involved; for Extent of disease by histologic score (combined): number of animals in scoring group 4: 4 = >50% of lung involved

N=C(N)c1ccc(OCCCCCOc2ccc(C(=N)N)cc2[N+](=O)[O-])c([N+](=O)[O-])c1 [Example 13]
Toxicity of amidines: Effect [1]: Acute toxicity, death at 10 mg/kg | Extent of Disease by Histologic Score: number of animals with score 0.5 (Pneumocystis carinii; 5 mg/kg i.v. daily): 3 animals | Extent of Disease by Histologic Score: number of animals with score 1 (Pneumocystis carinii; 5 mg/kg i.v. daily): 2 animals | Extent of Disease by Histologic Score: number of animals with score 2 (Pneumocystis carinii; 5 mg/kg i.v. daily): 3 animals | Extent of Disease by Histologic Score: number of animals with score 3 (Pneumocystis carinii; 5 mg/kg i.v. daily): 0 animals | Extent of Disease by Histologic Score: number of animals with score 4 (Pneumocystis carinii; 5 mg/kg i.v. daily): 0 animals | Extent of disease by histologic score (combined): number of animals in scoring group 0.5 (Pneumocystis carinii; tested at 5 mg/kg): 0 animals | Extent of disease by histologic score (combined): number of animals in scoring group 1 (Pneumocystis carinii; tested at 5 mg/kg): 2 animals | Extent of disease by histologic score (combined): number of animals in scoring group 2 (Pneumocystis carinii; tested at 5 mg/kg): 4 animals | Extent of disease by histologic score (combined): number of animals in scoring group 3 (Pneumocystis carinii; tested at 5 mg/kg): 2 animals | Extent of disease by histologic score (combined): number of animals in scoring group 4 (Pneumocystis carinii; tested at 5 mg/kg): 0 animals

N=C(N)c1ccc(NCCCCCNc2ccc(C(=N)N)cc2)cc1 [Example 17]
Deaths by day 13 ([1]; rat, in vivo): 2 deaths | Extent of Disease by Histologic Score: number of animals with score 0.5 (Pneumocystis carinii; 10 mg/kg i.v. daily): 1 animals | Extent of Disease by Histologic Score: number of animals with score 1 (Pneumocystis carinii; 10 mg/kg i.v. daily): 2 animals | Extent of Disease by Histologic Score: number of animals with score 2 (Pneumocystis carinii; 10 mg/kg i.v. daily): 3 animals | Extent of Disease by Histologic Score: number of animals with score 3 (Pneumocystis carinii; 10 mg/kg i.v. daily): 1 animals | Extent of Disease by Histologic Score: number of animals with score 4 (Pneumocystis carinii; 10 mg/kg i.v. daily): 0 animals | Efficacy in treating PCP compared with pentamidine (Pneumocystis carinii; 10 mg/kg unless otherwise noted): better than or equal to pentamidine | Extent of disease by histologic score (combined): number of animals in scoring group 0.5 (Pneumocystis carinii; 10 mg/kg): 1 animals | Extent of disease by histologic score (combined): number of animals in scoring group 1 (Pneumocystis carinii; 10 mg/kg): 2 animals | Extent of disease by histologic score (combined): number of animals in scoring group 2 (Pneumocystis carinii; 10 mg/kg): 3 animals | Extent of disease by histologic score (combined): number of animals in scoring group 3 (Pneumocystis carinii; 10 mg/kg): 1 animals | Extent of disease by histologic score (combined): number of animals in scoring group 4 (Pneumocystis carinii; 10 mg/kg): 0 animals | Efficacy in treating PCP compared with related compounds of the series (Pneumocystis carinii; effect of chain length or substituent): least effective

N=C(N)c1ccc(NCCCCCNc2ccc(C(=N)N)cc2[N+](=O)[O-])c([N+](=O)[O-])c1 [Example 18]
Toxicity of amidines: Effect [1]: Acute toxicity - death at 10 mg/kg | Extent of Disease by Histologic Score: number of animals with score 0.5 (Pneumocystis carinii; 5 mg/kg i.v. daily): 1 animals | Extent of Disease by Histologic Score: number of animals with score 1 (Pneumocystis carinii; 5 mg/kg i.v. daily): 3 animals | Extent of Disease by Histologic Score: number of animals with score 2 (Pneumocystis carinii; 5 mg/kg i.v. daily): 0 animals | Extent of Disease by Histologic Score: number of animals with score 3 (Pneumocystis carinii; 5 mg/kg i.v. daily): 2 animals | Extent of Disease by Histologic Score: number of animals with score 4 (Pneumocystis carinii; 5 mg/kg i.v. daily): 1 animals | Extent of disease by histologic score (combined): number of animals in scoring group 0.5 (Pneumocystis carinii; tested at 5 mg/kg): 1 animals | Extent of disease by histologic score (combined): number of animals in scoring group 1 (Pneumocystis carinii; tested at 5 mg/kg): 3 animals | Extent of disease by histologic score (combined): number of animals in scoring group 2 (Pneumocystis carinii; tested at 5 mg/kg): 0 animals | Extent of disease by histologic score (combined): number of animals in scoring group 3 (Pneumocystis carinii; tested at 5 mg/kg): 2 animals | Extent of disease by histologic score (combined): number of animals in scoring group 4 (Pneumocystis carinii; tested at 5 mg/kg): 1 animals | Efficacy in treating PCP compared with control (Pneumocystis carinii; compound at 5 mg/kg): better than the control | Efficacy in treating PCP compared with pentamidine (Pneumocystis carinii; compound at 5 mg/kg): less effective than pentamidine

N=C(N)c1ccc(OCCCCCCOc2ccc(C(=N)N)cc2N)c(N)c1 [Example 22]
Toxicity of amidines: Effect [1]: Acute toxicity - death at 10 mg/kg | Toxicity (words in running text) ([1]; rat, in vivo): toxic | Extent of Disease by Histologic Score: number of animals with score 0.5 (Pneumocystis carinii; 5 mg/kg i.v. daily): 0 animals | Extent of Disease by Histologic Score: number of animals with score 1 (Pneumocystis carinii; 5 mg/kg i.v. daily): 1 animals | Extent of Disease by Histologic Score: number of animals with score 2 (Pneumocystis carinii; 5 mg/kg i.v. daily): 4 animals | Extent of Disease by Histologic Score: number of animals with score 3 (Pneumocystis carinii; 5 mg/kg i.v. daily): 3 animals | Extent of Disease by Histologic Score: number of animals with score 4 (Pneumocystis carinii; 5 mg/kg i.v. daily): 0 animals | Extent of disease by histologic score (combined): number of animals in scoring group 0.5 (Pneumocystis carinii; tested at 5 mg/kg): 0 animals | Extent of disease by histologic score (combined): number of animals in scoring group 1 (Pneumocystis carinii; tested at 5 mg/kg): 1 animals | Extent of disease by histologic score (combined): number of animals in scoring group 2 (Pneumocystis carinii; tested at 5 mg/kg): 4 animals | Extent of disease by histologic score (combined): number of animals in scoring group 3 (Pneumocystis carinii; tested at 5 mg/kg): 3 animals | Extent of disease by histologic score (combined): number of animals in scoring group 4 (Pneumocystis carinii; tested at 5 mg/kg): 0 animals | Efficacy in treating PCP compared with pentamidine (Pneumocystis carinii; compound at 5 mg/kg): significantly less effective than the other compounds or pentamidine
